pIC50: −log10 of the molar value. Each block holds one compound with its values, some of them ahead of it. Where a SMILES comes first, the peptide text is derived from it. [ ]: non-standard residue; d: D form. pY = N[C@@H](Cc1ccc(OP(=O)(O)O)cc1)C(=O)O
How the values were obtained:
Shc PTB domain = molecular target: T1, Shc PTB domain (Homo sapiens, UniProt P29353); experiment: Surface plasmon resonance competition: GST-Shc PTB domain binding to immobilized middle T antigen phosphopeptide; conditions: BIAcore, soluble competing phosphopeptide; read-out: IC50, inhibition of binding of the Shc PTB domain to the middle T antigen phosphopeptide
T1 construct: the PTB domain fusion construct comprises amino acids 1-225 of human p52 Shc; made in house; host or cells: E. coli
T1 sequence (P29353 1-225 isoform P29353-2): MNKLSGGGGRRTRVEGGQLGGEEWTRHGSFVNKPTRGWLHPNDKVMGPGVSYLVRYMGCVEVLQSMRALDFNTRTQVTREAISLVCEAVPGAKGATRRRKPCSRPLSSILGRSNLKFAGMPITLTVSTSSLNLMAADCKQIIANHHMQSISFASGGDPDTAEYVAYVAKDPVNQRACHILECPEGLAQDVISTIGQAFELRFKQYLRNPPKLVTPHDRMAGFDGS
Description: Surface plasmon resonance—experiments were done with a BIAcore instrument (Pharmacia). A phosphopeptide corresponding to the NPXY sequence in the polyomavirus middle T antigen (mT) (LSLLSNPTpYSVNSK) was absorbed to the surface of a biosensor chip. Binding of soluble GST-Shc PTB domain fusion protein to the mT peptide was measured in the presence or absence of competing soluble phosphopeptides based on the sequences around Tyr 513 of DDR1b or Tyr 490 of the NGFR (HIIENPQpYFSD) (21).
Experiments were done with a BIAcore instrument (Pharmacia). A phosphopeptide corresponding to the NPXY sequence in the polyomavirus middle T antigen (LSLLSNPTpYSVMRSK) was absorbed to the surface of a biosensor chip. Binding of soluble GST-Shc PTB domain fusion protein to the middle T peptide was measured in presence or absence of competing soluble phosphopeptides based on the sequences around tyrosine 513 of DDR1b (ALLLSNPApYRLLLA) or tyrosine 490 of the NGF receptor (HIIENPQpYFSD).

[1] = molecular target: T2, Shc PTB domain binding to DDR1b (Homo sapiens, UniProt P29353); experiment: GST-Shc PTB pull-down of tyrosine phosphorylated DDR1b from 293 lysates, competition by phosphopeptide; conditions: lysates of transfected, orthovanadate-treated 293 cells
T2 construct: the PTB domain fusion construct comprises amino acids 1-225 of human p52 Shc; made in house; host or cells: GST-Shc PTB: E. coli; DDR1b: lysate of transiently transfected, orthovanadate-treated 293 cells
T2 sequence (P29353 1-225 isoform P29353-2): T1 sequence (P29353 1-225 isoform P29353-2)
Description: The results presented above raise the possibility that the Shc PTB domain binds to phosphorylated Tyr 513, which lies within the motif LLSNPAY in the DDR1b juxtamembrane insert. To test whether phosphorylation of Tyr 513 might form a PTB-binding site, a 14-mer phosphopeptide with the sequence ALLLSNPApYRLLLA was synthesized, corresponding to residues 505-518 of DDR1b. The ability of this phosphopeptide to bind the Shc PTB domain was analysed using a competition assay, in which the capacity of GST-Shc PTB fusion protein to bind tyrosine phosphorylated DDR1b from lysates of transfected 293 cells was measured in the presence of increasing amounts of the Tyr 513 phosphopeptide. […] To quantitate this interaction more precisely, surface plasmon resonance technology was used, in which soluble DDR1b phosphopeptide was employed to inhibit binding of the GST-Shc PTB fusion protein to a polyomavirus middle T antigen phosphopeptide, immobilized on a biosensor chip (21).
FIGS. 2A and 2B. Phosphorylation of Tyr 513 in the MCK10b (DDR1b) juxtamembrane insert forms a Shc PTB-binding site. […] Bound protein was detected by immunoblotting with antibodies to MCK10. […]

MMP-1 = MMP-1 expression in HT 1080 cells (Western blot of conditioned media); type: cell-based, human; conditions: collagen type I 10 μg/ml, or TPA
Description: The full length cDNA of DDR2 was stabilely expressed in HT 1080 cells using a retroviral expression construct (pLXSN). Neomycin resistant clones were tested for DDR2 expression. Parental and DDR2 overexpressing cells were cultivated in serum free medium and stimulated with 10 μg/ml collagen type I for various periods of time. The conditioned medium was 20-fold concentrated and analyzed for the presence of MMP-1 by Western blotting with the monoclonal antibody 41-IE5 (Oncogene Research Products; Cambridge, Mass.).

DDR1b = molecular target: T3, DDR1b (Homo sapiens, UniProt Q08345); experiment: Tyrosine phosphorylation of endogenous DDR1b in carcinoma cells (T-47D; A431), immunoprecipitation and anti-phosphotyrosine blot; type: cell-based; conditions: PDGF or EGF 5 min, collagen type I overnight
T3 construct: endogenous in cells; host or cells: T-47D human mammary carcinoma cells (A431 also named)
Description: To investigate the effects of collagen on cells that express endogenous DDR tyrosine kinases, the mammary carcinoma cell line T-47D was employed. Previous results have shown that DDR1 is highly expressed in human carcinoma cell lines, in particular, the breast cancer cell lines BT-20, MDA-MB-175 and T-47D (1) (Perez et al., 1996). […] The time course of endogenous DDR1b tyrosine phosphorylation in T-47D cells was even slower than in 293 cells, with maximal activation being achieved only after stimulation for 18 hours.
To further investigate the role of different types of collagen in the activation of DDR1 and DDR2, collagen types I, II, III and V purified from human placenta and collagen type II from bovine tracheal cartilage were obtained. To test their ability to induce receptor tyrosine phosphorylation, 293 cells overexpressing DDR1 or DDR2 were employed. […] The various types of collagen were also tested for their ability to stimulate tyrosine phosphorylation of endogenous DDR1b present in T-47D cells. For this purpose, DDR1b was immunoprecipitated from lysates of stimulated T-47D cells and analyzed by Western blotting with anti-phosphotyrosine antibodies. […] As previously shown, DDR1 tyrosine phosphorylation could also be activated by treating cells with 1 mM orthovanadate, an inhibitor of tyrosine phosphatases. Furthermore, gelatin which contains heat denatured collagen was tested for its capacity to induce DDR1b tyrosine phosphorylation.
Integrins of the type α1β1 and α2β1 have long been known to be receptors for collagen. Therefore, tests were conducted to determine if these integrins are somehow involved in the activation of DDR1b. The mammary carcinoma cell line T-47D, which endogenously expresses the b-isoform of DDR1, was used. Monoclonal antibodies directed against the extracellular domains of integrins can block binding to collagen and therefore signaling of integrins. T-47D cells were treated with antibody A2-IIE10 against α2-integrin and antibody DE9 against β1-integrin (both from Upstate Biotechnology) in the absence or presence of 10 μg/ml collagen type I overnight. DDR1b or Shc were immunoprecipitated from cellular lysates and analyzed by Western blotting with antiphosphotyrosine antibody.
DDR1b and DDR2 were transfected into 293 cells and were stimulated with 10 µg/ml mouse collagen type I for different periods of time. (FIG. 9A and FIG. 9B) Total cellular lysates were probed with antiphosphotyrosine antibody. Maximal activation is seen 90 min after stimulation of DDR1b (FIG. 9A) and DDR2 (FIG. 9B). (FIG. 9C) Human mammary carcinoma T-47D cells were cultivated on 10 cm dishes to confluence and starved in 0.5% serum overnight. Cells were stimulated with collagen type I for various periods of time and lysed. DDR1b was immunoprecipitated from the lysates and analyzed by Western blotting with antiphosphotyrosine antibody. Maximal phosphorylation of DDR1b is seen after stimulation for 18 h. An unidentified, tyrosine phosphorylated protein with an apparent molecular weight of 115 kDa is copurified in the immunoprecipitations. […] Prolonged stimulation with collagen increases the processing of DDR1b in T-47D cells, indicated by an additional 62 kDa band. (FIGS. 9E and 9F) DDR1b was immunoprecipitated from overexpressing 293 cells (E) and T-47D (FIG. 9F) cells and subjected to an in vitro kinase reaction. The incorporation of [^32P]-phosphate is monitored by SDS-PAGE followed by autoradiograpy.

MAPK = MAPK activation (mobility shift) in T-47D or HT 1080-DDR2 cells; type: cell-based, human; conditions: T-47D or HT 1080 overexpressing DDR2; PDGF or EGF 5 min, collagen type I overnight
Description: T-47D or HT 1080 overexpressing DDR2 cells were stimulated with PDGF or EGF for 5 min, with collagen type I overnight and with a combination of EGF/collagen or PDGF/collagen. […] Furthermore, activation of MAPK by EGF is not influenced by simultaneous activation of DDR receptors.

T3 sequence (Q08345 19-913): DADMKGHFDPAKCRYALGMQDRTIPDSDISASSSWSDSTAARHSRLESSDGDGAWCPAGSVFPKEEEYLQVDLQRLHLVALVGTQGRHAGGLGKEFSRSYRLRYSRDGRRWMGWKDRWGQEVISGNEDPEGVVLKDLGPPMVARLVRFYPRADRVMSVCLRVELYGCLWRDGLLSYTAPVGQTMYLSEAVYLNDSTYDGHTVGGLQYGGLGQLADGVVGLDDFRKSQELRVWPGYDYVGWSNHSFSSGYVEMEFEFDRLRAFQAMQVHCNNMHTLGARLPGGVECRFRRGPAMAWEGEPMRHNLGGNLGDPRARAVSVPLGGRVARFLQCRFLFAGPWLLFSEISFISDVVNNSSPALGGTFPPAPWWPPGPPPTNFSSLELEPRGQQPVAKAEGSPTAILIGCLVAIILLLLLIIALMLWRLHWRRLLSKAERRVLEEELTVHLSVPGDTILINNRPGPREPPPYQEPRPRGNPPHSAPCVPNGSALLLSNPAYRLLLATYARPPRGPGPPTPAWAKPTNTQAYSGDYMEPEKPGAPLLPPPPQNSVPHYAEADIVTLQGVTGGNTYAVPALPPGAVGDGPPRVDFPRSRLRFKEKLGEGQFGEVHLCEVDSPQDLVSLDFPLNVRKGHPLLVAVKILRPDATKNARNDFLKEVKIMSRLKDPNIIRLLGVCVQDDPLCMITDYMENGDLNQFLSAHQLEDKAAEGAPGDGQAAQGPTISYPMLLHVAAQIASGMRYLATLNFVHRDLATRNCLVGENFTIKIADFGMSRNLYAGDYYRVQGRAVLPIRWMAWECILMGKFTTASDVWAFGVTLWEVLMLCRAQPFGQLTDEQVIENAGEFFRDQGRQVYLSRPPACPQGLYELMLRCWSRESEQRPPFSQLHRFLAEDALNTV

pIC50 (Shc PTB domain): ~6.10
phosphopeptide concentration for full inhibition of Shc PTB binding to DDR1b [1]: 2 µM
phosphopeptide concentration that inhibited binding of the Shc PTB domain to DDR1b [1]: 100 nM
Compound: CC(C)C[C@H](NC(=O)[C@H](C)N)C(=O)N[C@@H](CC(C)C)C(=O)N[C@@H](CC(C)C)C(=O)N[C@@H](CO)C(=O)N[C@@H](CC(N)=O)C(=O)N1CCC[C@H]1C(=O)N[C@@H](C)C(=O)N[C@@H](Cc1ccc(OP(=O)(O)O)cc1)C(=O)N[C@@H](CCCNC(=N)N)C(=O)N[C@@H](CC(C)C)C(=O)N[C@@H](CC(C)C)C(=O)N[C@@H](CC(C)C)C(=O)N[C@@H](C)C(=O)O [DDR1b phosphopeptide, ALLLSNPApYRLLLA] (H-ALLLSNPA[pY]RLLLA-OH; N-terminus and C-terminus assumed)

Compound: CCCCCCCCCCCCCC(=O)O[C@@H]1[C@@H](C)[C@@]2(O)[C@@H](C=C(CO)C[C@]3(O)C(=O)C(C)=C[C@@H]23)[C@@H]2C(C)(C)[C@]12OC(C)=O [TPA, phorbol 12-myristate 13-acetate]
expression of MMP-1 in HT 1080 cells overexpressing DDR2 (MMP-1; 4 days): induced
expression of MMP-1 in parental HT 1080 cells (MMP-1): induced

activation of DDR1b in T-47D cells (DDR1b): not
Compound: PDGF [reference compound]
MAPK activation (MAPK): not

— US20030070184A1, “LIGANDS FOR DISCOIDIN DOMAIN RECEPTOR TYROSINE KINASES AND COMPLEXES THEREOF” (priority 1999, published 2003)
